# Laboratory results as given in patent publication US12534456B2, “Heterocyclyl pyridines as novel fungicides” (Bayer Aktiengesellschaft, priority 2020, dated 2026).
# Test: physchem
# Type: physicochemical
# Details: not given
# Procedure: Measurement of Log P values as provided herein was performed according to EEC directive 79/831 Annex V.A8 by HPLC (High Performance Liquid Chromatography) on reversed phase columns with the following methods: • ^[a]
# If more than one Log P value is available within the same method, all the values are given and separated by “+”.
# Lambda-max-values were determined using UV-spectra from 200 nm to 400 nm and the peak values of the chromatographic signals
row,Compound,LogP
1,Cc1ccc(CC2CON=C(c3cc(Cl)ncc3Oc3ccc4c(c3)CCC4)N2)c(C)c1 (racemic) [Compound I-100],5.16^[a]
2,Cc1ccc(CC2CON=C(c3cc(Cl)ncc3Oc3cccc(Cl)c3)N2)c(Cl)c1 (racemic) [Compound I-103],4.66^[a]
3,O=C(NC(CCl)Cc1ccc(C(F)(F)F)cc1Cl)c1cc(Cl)ncc1Oc1cccc(C(F)(F)F)c1 (centres unmarked) [14-09],5.36^[a]
4,CC(=O)c1cc(C(=O)O)c(Oc2cccc(C(F)(F)F)c2)cn1 [Compound 1-02],2.54^[a]
5,Cc1ccc(CC(CON2C(=O)c3ccccc3C2=O)NC(=O)OC(C)(C)C)c(Cl)c1 (centres unmarked) [Compound 2-05],4.41^[a]
6,O=C(NC(CCl)Cc1csc(Cl)c1)c1cc(Cl)ncc1Oc1cccc(C(F)(F)F)c1 (centres unmarked) [14-11],4.96^[a]
7,Cc1ccc(CC2CON=C(c3cc(Cl)ncc3Oc3cccc(OC(F)F)c3F)N2)c(C)c1 (racemic) [Compound I-035],4.23^[a]
8,COc1cccc(Oc2cnc(Cl)cc2C(=O)NC(CON2C(=O)c3ccccc3C2=O)Cc2ccc(Br)cc2Cl)c1 (centres unmarked) [3-08],5.05^[a]
9,Cc1ccc(CC(CCl)NC(=NO)c2cc(Cl)nc(F)c2Oc2cccc(C(F)(F)F)c2)c(C)c1 (centres unmarked) [16-06],5.16^[a]
10,Cc1ccc(CC2CON=C(c3cc(Cl)ncc3Oc3cccc(OC(F)F)c3)N2)c(C)c1 (racemic) [Compound I-065],4.38^[a]
11,CSc1cccc(Oc2cnc(Cl)cc2C2=NOCC(Cc3ccc(C)cc3C)N2)c1F (centres unmarked) [Compound I-154],4.47^[a]
12,COc1cccc(Oc2cnc(Cl)cc2C2=NOCC(Cc3ccc(C)cc3C)N2)c1 (racemic) [Compound I-005],4.18^[a]
13,NOCC(Cc1ccc(Cl)cc1Cl)NC(=O)c1cc(Cl)ncc1Oc1cccc(C2CC2)c1F (centres unmarked) [4-04],3.96^[a]
14,CSc1cccc(Oc2cnc(Cl)cc2C2=NOCC(Cc3ccc(C)cc3C)N2)c1 (racemic) [Compound I-064],4.66^[a]
15,CC1(C)ON=C(c2cc(Cl)ncc2Oc2cccc(C(F)(F)F)c2)NC1c1ccc(F)cc1F (racemic) [Compound I-043],4.30^[a]
16,Cc1ccc(CC2CON=C(c3cc(C4CC4)ncc3Oc3cccc(C4CC4)c3)N2)c(C)c1 (racemic) [Compound I-016],4.87^[a]
17,FC(F)(F)c1cncc(Oc2cnc(Cl)cc2C2=NOCC(Cc3ccc(Cl)cc3Cl)N2)c1 (racemic) [Compound I-125],3.71^[a]
18,Cc1ccc(CC2CON=C(c3cc(Cl)ncc3Oc3cccc(N(C)C)c3)N2)c(C)c1 (centres unmarked) [Compound I-132],4.47^[a]
19,FC(F)(F)c1cccc(Oc2cnc(Cl)cc2C2=NOCC(c3ccc4c(c3)CCC4)N2)c1 (racemic) [Compound I-054],4.41^[a]
20,Cc1ccc(CC2CN=C(c3cc(Cl)ncc3Oc3cccc(C(F)(F)F)c3)N2)c(C)c1 (racemic) [Compound I-081],2.64^[a]

row,Compound,LogP
1,C#Cc1ccc(CC2CON=C(c3cc(C#C)ncc3Oc3cccc(C(F)(F)F)c3)N2)c(C)c1 (racemic) [Compound I-074],3.75^[a]
2,CC(=O)c1cccc(Oc2cnc(Cl)cc2C2=NOCC(Cc3ccc(C)cc3C)N2)c1 (racemic) [Compound I-117],3.70^[a]
3,"Cc1ccc(CC2CON=C(c3cc(Cl)ncc3Oc3cccc(C4CC4)c3)N2)c(C)c1 (single isomer, unassigned) [Compound I-019]",4.89^[a]
4,COc1cccc(Oc2cnc(Cl)cc2C2=NOCC(Cc3ccc(Br)cc3Cl)N2)c1 (racemic) [Compound I-006],4.37^[a]
5,ON=C(NC(CCl)Cc1csc(C(F)(F)F)c1)c1cc(Cl)ncc1Oc1cccc(C(F)(F)F)c1 (centres unmarked) [16-10],4.59^[a]
6,Cc1ccc(CC(CCl)NC(=O)c2cc(Cl)nc(Cl)c2Oc2cccc(C(F)(F)F)c2)c(C)c1 (centres unmarked) [14-07],5.45^[a]
7,Cc1ccc(CC2CON=C(c3cc(C)ncc3Oc3cccc(C(F)F)c3)N2)c(C)c1 (racemic) [Compound I-010],3.41^[a]
8,Cc1ccc(CC2CON=C(c3cc(Cl)ncc3Oc3cccc(C(F)(F)F)c3)N2)cc1 (racemic) [Compound I-110],4.31^[a]
9,Cc1ccc(CC2CON=C(c3cc(Cl)ncc3Oc3cccc(Cl)c3F)N2)c(C)c1 (centres unmarked) [Compound I-144],4.59^[a]
10,Cc1ccc(CC2CON=C(c3c(Oc4cccc(C(F)(F)F)c4)cnc(Cl)c3-c3ccccc3)N2)c(C)c1 (centres unmarked) [Compound I-133],5.04^[a]
11,FC(F)(F)c1cccc(Oc2cnc(Cl)cc2C2=NOCC(Cc3csc(C(F)(F)F)c3)N2)c1 (racemic) [Compound I-068],4.40^[a]
12,C#Cc1cccc(Oc2cnc(Cl)cc2C2=NOCC(Cc3ccc(C)cc3C)N2)c1 (racemic) [Compound I-075],4.33^[a]
13,Cc1ccc(CC2CON=C(c3cc(C)ncc3Oc3cccc(C4CC4)c3F)N2)c(Cl)c1 (racemic) [Compound I-031],4.08^[a]
14,O=C(NC(CON1C(=O)c2ccccc2C1=O)Cc1ccc(Br)cc1Cl)c1cc(Cl)ncc1Oc1cccc(C2CC2)c1 (centres unmarked) [3-02],5.75^[a]
15,Cc1ccc(CC2CON=C(c3c(Oc4cccc(C(F)(F)F)c4)cnc(Cl)c3I)N2)c(C)c1 (centres unmarked) [Compound I-077],4.66^[a]
16,Cc1ccc(CC2CON=C(c3cc(C)ncc3Oc3cccc(Cl)c3F)N2)c(Cl)c1 (racemic) [Compound I-069],4.07^[a]
17,FC(F)(F)c1cccc(Oc2cnc(Cl)cc2C2=NOCCC(c3ccc(Cl)cc3)N2)c1 (racemic) [Compound I-108],2.12^[a]
18,Cc1ccc(CC2CON=C(c3cc(Cl)nc(F)c3Oc3cccc(C(F)(F)F)c3)N2)c(C)c1 (racemic) [Compound I-082],4.97^[a]
19,"Cc1ccc(CC2CON=C(c3cc(Cl)ncc3Oc3cccc(C4CC4)c3F)N2)c(C)c1 (single isomer, unassigned) [Compound I-021]",4.93^[a]
20,C=Cc1cc(C2=NOCC(Cc3ccc(C)cc3)N2)c(Oc2cccc(C(F)(F)F)c2)cn1 (racemic) [Compound I-059],4.19^[a]

row,Compound,LogP
1,Cc1ccc(CC(CON)NC(=O)c2cc(Cl)ncc2Oc2cccc(C3CC3)c2F)c(C)c1 (centres unmarked) [4-06],3.72^[a]
2,Cc1ccc(CC2CON=C(c3cc(Cl)ncc3Oc3cccc(C4COC4)c3)N2)c(C)c1 (racemic) [Compound I-113],3.68^[a]
3,Cc1ccc(CC2CON=C(c3cc(Cl)ncc3Oc3cccc(S(C)(=O)=O)c3)N2)c(C)c1 (racemic) [Compound I-095],3.25^[a]
4,COc1cccc(Oc2cnc(Cl)cc2C(=O)NC(CON)Cc2ccc(C)cc2C)c1 (centres unmarked) [4-09],3.08^[a]
5,O=C(O)c1c(Oc2cccc(C(F)(F)F)c2)cnc(Cl)c1F [Compound 1-01],2.28^[a]
6,Cc1cccc(CC2CON=C(c3cc(Cl)ncc3Oc3cccc(Cl)c3F)N2)c1Cl (centres unmarked) [Compound I-151],4.62^[a]
7,Cc1ccc(CC2CON=C(c3cc(C(F)(F)F)ncc3Oc3cccc(C4CC4)c3F)N2)c(C)c1 (racemic) [Compound I-033],5.20^[a]
8,Cc1ccc(CC(CON2C(=O)c3ccccc3C2=O)NC(=O)c2cc(Cl)ncc2Oc2cccc(C3CC3)c2F)c(C)c1 (centres unmarked) [3-06],5.38^[a]
9,Cc1ccc(CC2CON=C(c3cc(C)ncc3Oc3cccc(C4CC4)c3)N2)c(C)c1 (racemic) [Compound I-015],3.94^[a]
10,C=CC(C)Nc1c(Cl)ncc(Oc2cccc(C(F)(F)F)c2)c1C1=NOCC(Cc2ccc(C)cc2C)N1 (centres unmarked) [Compound I-131],5.19^[a]
11,Cc1ccc(C(CCl)NC(=NO)c2cc(Cl)ncc2Oc2cccc(C(F)(F)F)c2)cc1 (centres unmarked) [16-12],4.19^[a]
12,"Cc1ccc(CC2CON=C(c3cc(Cl)ncc3Oc3cccc(C4CC4)c3)N2)c(C)c1 (single isomer, unassigned) [Compound I-020]",4.89^[a]
13,Cc1ccc(CC2CON=C(c3cc(Cl)ncc3Oc3ccc4ccsc4c3)N2)c(C)c1 (racemic) [Compound I-119],4.59^[a]
14,O=C(NC(CCl)Cc1csc(C(F)(F)F)c1)c1cc(Cl)ncc1Oc1cccc(C(F)(F)F)c1 (centres unmarked) [14-10],4.96^[a]
15,FC(F)(F)c1cccc(Oc2cnc(Cl)cc2C2=NOCC(C3(c4ccccc4)CC3)N2)c1 (racemic) [Compound I-046],4.21^[a]
16,CCN(C)c1cc(C2=NOCC(Cc3ccc(C)cc3Cl)N2)c(Oc2cccc(Cl)c2F)cn1 (racemic) [Compound I-112],4.59^[a]
17,Cn1cc(-c2ccc(CC3CON=C(c4cc(Cl)ncc4Oc4cccc(C(F)F)c4)N3)c(Cl)c2)cn1 (racemic) [Compound I-037],3.37^[a]
18,Cc1ccc(CC2CN(C=O)N=C(c3cc(Cl)ncc3Oc3cccc(C(F)(F)F)c3)N2)c(C)c1 (racemic) [Compound I-094],4.49^[a]
19,Cc1ccc(CC(CON2C(=O)c3ccccc3C2=O)NC(=O)c2cc(Cl)ncc2Oc2cccc(Cl)c2)c(C)c1 (centres unmarked) [3-12],5.11^[a]
20,Cc1ccc(CC2CON=C(c3cc(Cl)ncc3Oc3cccc(-c4ccccn4)c3)N2)c(C)c1 (racemic) [Compound I-089],3.87^[a]

# Same assay, conditions: Table 7, compounds of formula (3); method [a]
row,Compound,chromatographic logP
1,"Cc1ccc(CC(CON2C(=O)c3ccccc3C2=O)NC(=O)c2cc(Cl)ncc2Oc2cccc(C(F)(F)F)c2)c(C)c1 (racemic) [Compound 3-01, 2-chloro-N-{(2RS)-1-(2,4-dimethylphenyl)-3-[(1,3-dioxo-1,3-dihydro-2H-isoindol-2-yl)oxy]propan-2-yl}-5-[3-(trifluoromethyl)phenoxy]isonicotinamide]",5.14

# Same assay, conditions: Table 13, compounds of formula (7); method [a]
row,Compound,chromatographic logP
1,"Cc1ccc(CC2CON=C(c3cc(C(F)(F)F)ncc3Br)N2)c(C)c1 (racemic) [Compound 7-03, (5RS)-3-[5-bromo-2-(trifluoromethyl)pyridin-4-yl]-5-(2,4-dimethylbenzyl)-5,6-dihydro-4H-1,2,4-oxadiazine]",2.43
